Data from patent publication US5198461A, “Isatine derivatives, their preparation and use” (NeuroSearch A/S, priority 1989, dated 1993).

Assays:
[1] = biological target: 3H-kainate, 3H-AMPA and/or 3H-glycine binding sites; experiment: Kainate, quisqualate (3H-AMPA) and glycine binding assays; settings: site(s) not specified per compound ('and/or')
Method: The quisqualate binding assay was performed as described by T. Honore et al., Neuroscience Letters 54, 27-32 (1985).
The kainate binding assay was performed as described by T. Honore et al., Neuroscience Letters 65, 47-52 (1986).
The glycine binding assay was performed as described by W. Frost White et al., Journal of Neurochemistry 53(2), 503-512 (1989).

[2] = test system: quisqualate-induced clonic seizures in male DBA/2 mice; experiment: Quisqualate-induced clonic seizures; type: in vivo; settings: Mus musculus, iv, quisqualate icv, test compound i.v. 5 min before, given as 'quisqualate or NMDA-induced convulsions', read-out: ED50, inhibition of quisqualate-induced convulsions
Method: Quisqualate given icv (intracerebroventricular) to DBA/2 mice induces clonic seizures which can be inhibited by both NMDA and non-NMDA receptor antagonists after i.v. administration.
Test compound was given i.v. 5 min before a 20 pg icv administration of quisqualate to 10 male DBA/2 mice (weighing 10-12 g) per dose. The number of mice experiencing clonic seizures within the next 2 min was noted. An ED50 value was calculated as the dose inhibiting 50% of the mice from having clonic seizures.

[3] = test system: ATPA-induced rigidity in female NMRI mice; experiment: ATPA-induced rigidity; type: in vivo; settings: Mus musculus, 15 mg/kg ATPA i.v., test compound i.v. or p.o., read-out: ED50, inhibition of ATPA-induced rigidity
Method: The selective quisqualate receptor agonist ATPA induces rigidity in female NMRI mice at doses between 3 and 15 mg/kg and clonic-tonic seizures and death, probably due to respiratory arrest, at doses between 15 and 40 mg/kg after intravenous (i.v.) administration.
ATPA ((RS)-α-amino-3-hydroxy-5-tert-butyl-4-isoxazolepropionic acid) was dissolved in distilled water and test compound was dissolved in a polyoxyl 40 hydrogenated castor oil (5% Cremophor RH™ 40 (BASF)).
Test compound was administered either i.v. 5, 30 or 120 min before or p.o. 30 min before an i.v. administration of 15 mg/kg of ATPA to 8 female NMRI mice per dose and the number of mice experiencing rigidity 5 min later was noted. An ED50 value was calculated from at least three doses of test compound as the dose inhibiting 50% of the mice from having rigidity.

[4] = test system: NMDA-induced clonic seizures in male NMRI mice; experiment: NMDA-induced clonic seizures; type: in vivo; settings: Mus musculus, iv, NMDA icv, test compound i.v. 5 min before, given as 'quisqualate or NMDA-induced convulsions', read-out: ED50, inhibition of NMDA-induced convulsions
Method: NMDA give icv to NMRI mice induces clonic seizures which can be inhibited by NMDA receptor antagonists.
Test compound was given i.v. 5 min before a 0.5 μg icv administration of NMDA to 10 male NMRI mice per dose. The number of mice experiencing clonic seizures within the next 2 min was noted. An ED50 value was calculated as the dose inhibiting 50% of the mice from having clonic seizures.

[5] = test system: cocaine-induced hypermotility in female NMRI mice; experiment: Cocaine-induced hypermotility; type: in vivo; settings: Mus musculus, po, administered orally, 25 mg/kg cocaine i.p., read-out: ED50, antagonism of cocaine-induced hypermotility
Description: Quisqualate and kainate administered locally induce an increase in dopamine release in nucleus accumbens and nucleus caudatus accompanied by stereotype behaviour such as hyperlocomotion, rearing, sniffing and grooming. These effects can be inhibited by selective quisqualate antagonists administered locally by the micro-dialyses method.
Also the dopamine uptake inhibitor cocaine administered s.c. induce hypermotility which can be inhibited by an administration of the glutamate antagonist GDEE into nucleus accumbens.
Test compound was administered orally at doses of 0.1, 1, 10 and 30 mg/kg 30 min before the administration of 25 mg/kg cocaine i.p. to female NMRI mice and the locomotor activity of 2 mice per box was measured for the next 2 hours by use of 8 infrared photobeams per box. The mice had been adapted to the box for at least 16 hours to avoid exploratory motility (neophobia).

Row | SMILES | IC50 [1] [µM] | other results
1 | CCOC(=O)CN1C(=O)C(=NOC)c2cc([N+](=O)[O-])cc([N+](=O)[O-])c21 [5,7-dinitro-1-(ethoxycarbonylmethyl)-1H-indole-2,3-dione-3-(O-methyloxime)] |  | ED50 [2]: 0.1 to 10 mg/kg; ED50 [3]: 0.1 to 10 mg/kg; ED50 [4]: 0.1 to 10 mg/kg
2 | CON=C1C(=O)N(C)c2c1cc([N+](=O)[O-])cc2[N+](=O)[O-] [5,7-dinitro-1-methyl-1H-indole-2,3-dione-3-(O-methyloxime)] |  | ED50 [2]: 0.1 to 10 mg/kg; ED50 [3]: 0.1 to 10 mg/kg; ED50 [5]: 0.5 to 1 mg/kg; ED50 [4]: 0.1 to 10 mg/kg
3 | CN1C(=O)C(=NO)c2cc([N+](=O)[O-])cc([N+](=O)[O-])c21 [5,7-dinitro-1-methyl-1H-indole-2,3-dione-3-oxime] | 10 to 100 | 
4 | O=C1Nc2c(cc([N+](=O)[O-])cc2[N+](=O)[O-])C1=NO [5,7-dinitro-1H-indole-2,3-dione-3-oxime] | 10 to 100 | 
5 | CNS(=O)(=O)c1cc2c(c3c1CCCC3)NC(=O)C2=NO [5-(N-methylsulphamoyl)-6,7,8,9-tetrahydro-1H-benz[g]indole-2,3-dione-3-oxime] | 10 to 100 | 

Further lines, with some results ahead:

Row | IC50 [1] [µM] | SMILES | other results
6 | 10 to 100 | O=C1Nc2c(ccc3ccccc23)C1=NO [1H-benz[g]indole-2,3-dione-3-oxime] | 
7 | 10 to 100 | O=C1Nc2c(cc(S(=O)(=O)NOCc3ccccc3)c3c2CCCC3)C1=NO [5-(benzyloxysulphamoyl)-6,7,8,9-tetrahydro-1H-benz[g]indole-2,3-dione-3-oxime] | 
8 | 10 to 100 | O=C1Nc2c(cc(Br)cc2[N+](=O)[O-])C1=NO [5-bromo-7-nitro-1H-indole-2,3-dione-3-oxime] | 
9 | 10 to 100 | O=C1Nc2c(cc([N+](=O)[O-])c3c2CCCC3)C1=NO [5-nitro-1H-6,7,8,9-tetrahydro-benz[g]indole-2,3-dione-3-oxime] | 
10 | 10 to 100 | O=C1Nc2c(cc([N+](=O)[O-])c3ccccc23)C1=NO [5-nitro-1H-benz[g]indole-2,3-dione-3-oxime] | 
11 | 10 to 100 | O=C1Nc2ccc([N+](=O)[O-])cc2C1=NO [5-nitro-1H-indole-2,3-dione-3-oxime] | 
